Laboratory results as given in patent publication US8680108B2, “Substituted fused aryl and heteroaryl derivatives as PI3K inhibitors” (Incyte Corporation, priority 2009, dated 2014).
Where a name gives a salt, the structure may show the parent alone. Read-outs that look alike come from different tables or passages of the source.

Target: T1, PI3Kδ (p110δ/p85α) (Homo sapiens, UniProt O00329)
T1 construct: purchased Millipore (Bedford, Mass.)
Assay: PI3Kδ scintillation proximity assay
Assay type: biochemical
From the text: Materials: [γ-^33P]ATP (10 mCi/mL) was purchased from Perkin-Elmer (Waltham, Mass.). Lipid kinase substrate, D-myo-Phosphatidylinositol 4,5-bisphosphate (PtdIns(4,5)P2)D (+)-sn-1,2-di-O-octanoylglyceryl, 3-O-phospho linked (PIP2), CAS 204858-53-7, was purchased from Echelon Biosciences (Salt Lake City, Utah). PI3Kδ (p110δ/p85α) was purchased from Millipore (Bedford, Mass.). ATP, MgCl2, DTT, EDTA, MOPS and CHAPS were purchased from Sigma-Aldrich (St. Louis, Mo.). Wheat Germ Agglutinin (WGA) YSi SPA Scintillation Beads was purchased from GE healthcare life sciences (Piscataway, N.J.).
Assay: The kinase reaction was conducted in polystyrene 384-well matrix white plate from Thermo Fisher Scientific in a final volume of 25 μL. Inhibitors were first diluted serially in DMSO and added to the plate wells before the addition of other reaction components. The final concentration of DMSO in the assay was 0.5%. The PI3K assays were carried out at room temperature in 20 mM MOPS, pH 6.7, 10 mM MgCl2, 5 mM DTT and CHAPS 0.03%. Reactions were initiated by the addition of ATP, the final reaction mixture consisted of 20 μM PIP2, 20 μM ATP, 0.2 μCi [γ-^33P] ATP, 4 nM PI3Kδ. Reactions were incubated for 210 minutes and terminated by the addition of 40 μL SPA beads suspended in quench buffer: 150 mM potassium phosphate pH 8.0, 20% glycerol. 25 mM EDTA, 400 μM ATP. The final concentration of SPA beads is 1.0 mg/mL. After the plate sealing, plates were shaken overnight at room temperature and centrifuged at 1800 rpm for 10 minutes, the radioactivity of the product was determined by scintillation counting on Topcount (Perkin-Elmer). IC50 determination was performed by fitting the curve of percent control activity versus the log of the inhibitor concentration using the GraphPad Prism® 3.0 software.

T1 sequence (O00329 whole entry): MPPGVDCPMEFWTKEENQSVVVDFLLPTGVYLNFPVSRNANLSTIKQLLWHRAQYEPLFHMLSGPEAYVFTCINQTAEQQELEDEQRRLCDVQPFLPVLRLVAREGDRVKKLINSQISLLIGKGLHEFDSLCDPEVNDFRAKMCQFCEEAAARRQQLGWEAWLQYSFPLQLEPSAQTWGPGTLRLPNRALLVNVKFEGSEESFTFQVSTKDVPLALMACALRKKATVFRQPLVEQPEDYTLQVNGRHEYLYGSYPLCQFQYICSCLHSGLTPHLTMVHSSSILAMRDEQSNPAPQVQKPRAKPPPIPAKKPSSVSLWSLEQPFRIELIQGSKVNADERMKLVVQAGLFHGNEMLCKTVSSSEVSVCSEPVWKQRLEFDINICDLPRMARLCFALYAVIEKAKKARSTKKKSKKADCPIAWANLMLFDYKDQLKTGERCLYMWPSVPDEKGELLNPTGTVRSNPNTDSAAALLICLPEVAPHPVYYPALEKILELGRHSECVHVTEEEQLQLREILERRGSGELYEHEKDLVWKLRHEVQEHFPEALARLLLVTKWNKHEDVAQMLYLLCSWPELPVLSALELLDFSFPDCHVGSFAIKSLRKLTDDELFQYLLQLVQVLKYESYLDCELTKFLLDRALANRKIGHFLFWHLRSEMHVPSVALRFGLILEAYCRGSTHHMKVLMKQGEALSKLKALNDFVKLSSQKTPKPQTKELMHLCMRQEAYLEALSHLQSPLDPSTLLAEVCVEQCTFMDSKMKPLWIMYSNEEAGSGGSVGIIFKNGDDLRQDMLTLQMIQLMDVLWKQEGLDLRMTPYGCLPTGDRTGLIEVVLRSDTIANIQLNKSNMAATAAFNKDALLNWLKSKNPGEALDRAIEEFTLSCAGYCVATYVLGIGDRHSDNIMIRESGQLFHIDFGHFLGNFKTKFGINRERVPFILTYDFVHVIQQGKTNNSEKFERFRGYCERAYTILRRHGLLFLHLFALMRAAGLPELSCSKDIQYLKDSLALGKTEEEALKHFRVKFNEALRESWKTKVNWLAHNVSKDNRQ
T1 sequence (P27986 whole entry partner): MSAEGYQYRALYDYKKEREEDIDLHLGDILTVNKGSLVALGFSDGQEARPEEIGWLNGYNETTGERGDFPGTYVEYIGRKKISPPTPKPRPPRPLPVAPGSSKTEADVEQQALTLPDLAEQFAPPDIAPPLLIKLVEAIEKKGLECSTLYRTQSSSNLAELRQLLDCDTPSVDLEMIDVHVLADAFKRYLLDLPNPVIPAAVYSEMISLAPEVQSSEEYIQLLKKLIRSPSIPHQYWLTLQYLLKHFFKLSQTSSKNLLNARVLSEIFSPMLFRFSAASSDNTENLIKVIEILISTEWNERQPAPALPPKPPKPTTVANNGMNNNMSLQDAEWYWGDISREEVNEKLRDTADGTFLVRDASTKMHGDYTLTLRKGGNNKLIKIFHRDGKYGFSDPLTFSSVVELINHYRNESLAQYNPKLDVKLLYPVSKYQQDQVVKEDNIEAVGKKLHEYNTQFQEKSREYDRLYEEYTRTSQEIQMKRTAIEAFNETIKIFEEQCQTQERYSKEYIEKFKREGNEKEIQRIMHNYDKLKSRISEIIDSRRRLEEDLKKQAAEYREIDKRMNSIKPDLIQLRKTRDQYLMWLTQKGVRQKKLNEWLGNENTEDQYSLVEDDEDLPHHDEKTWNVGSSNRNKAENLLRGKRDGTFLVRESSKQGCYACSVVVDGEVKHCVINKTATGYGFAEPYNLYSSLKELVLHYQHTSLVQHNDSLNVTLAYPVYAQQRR

Compound | IC50 [µM] | other results
CC(Nc1nc(N)nc2[nH]cnc12)c1ccc2ccccc2c1-c1cccc(F)c1 (stereo not drawn) [Example 4, N(6)-{1-[1-(3-fluorophenyl)-2-napthyl]ethyl}-9H-purine-2,6-diamine] |  | IC50 (separated isomer, 1st peak): 0.5 to 1 µM; IC50 (separated isomer, 2nd peak): 0.5 to 1 µM
CC(Nc1ncnc2[nH]cnc12)c1cc(Cl)c2ccccc2c1-c1cccc(F)c1 (stereo not drawn) [Example 46, N-{1-[4-Chloro-1-(3-fluorophenyl)-2-naphthyl]ethyl}-9H-purin-6-amine] | 0.1 to 0.25 | 
CC(Nc1ncnc2[nH]cnc12)c1cc(F)c2ccnnc2c1-c1cccc(F)c1 (single isomer, unassigned) [Example 21, N-{1-[5-Fluoro-8-(3-fluorophenyl)cinnolin-7-yl]ethyl}-9H-purin-6-amine] | > 1 | 
CC(Nc1ncnc2[nH]cnc12)c1cc(Cl)c2cccnc2c1N1CCC(F)(F)CC1 (stereo not drawn) [Example 47, N-{1-[5-Chloro-8-(4,4-difluoropiperidin-1-yl)quinolin-7-yl]ethyl}-9H-purin-6-amine] | 0.5 to 1 | 
CC(Nc1ncnc2[nH]cnc12)c1cc(Cl)c2ccnnc2c1-c1ccccc1F (single isomer, unassigned) [Example 25, N-{1-[5-Chloro-8-(2-fluorophenyl)cinnolin-7-yl]ethyl}-9H-purin-6-amine] | > 1 | 
COc1ccc(-c2c(C(C)Nc3ncnc4[nH]cnc34)cc(Cl)c3ccnnc23)cc1F (stereo not drawn) [Example 41, N-{1-[5-Chloro-8-(3-fluoro-4-methoxyphenyl)cinnolin-7-yl]ethyl}-9H-purin-6-amine] | 0.5 to 1 | 
CCc1cc(C(C)Nc2ncnc3[nH]cnc23)c(-c2cccc(F)c2)c2ncccc12 (stereo not drawn) [Example 51, N-{1-[5-Ethyl-8-(3-fluorophenyl)quinolin-7-yl]ethyl}-9H-purin-6-amine bis(trifluoroacetate)] | 0.05 to 0.1 | 
CC(Nc1ncnc2[nH]cnc12)c1ccc2ccccc2c1-c1cccc(F)c1 (stereo not drawn) [Example 1, N-{1-[1-(3-fluorophenyl)-2-naphthyl]ethyl}-9H-purin-6-amine trifluoroacetate] | 0.1 to 0.25 | 
CC(Nc1ncnc2[nH]cnc12)c1cc(Cl)c2cccnc2c1N1CCN(C(=O)c2ccc(F)cc2)CC1 (stereo not drawn) [Example 91, N-(1-{5-Chloro-8-[4-(4-fluorobenzoyl)piperazin-1-yl]quinolin-7-yl}ethyl)-9H-purin-6-amine bis(trifluoroacetate)] | 0.1 to 0.25 | 
CC(Nc1ncnc2[nH]cnc12)c1cc(C#N)c2cccnc2c1-c1cccc(F)c1 (stereo not drawn) [Example 52, 8-(3-fluorophenyl)-7-[1-(9H-purin-6-ylamino)ethyl]quinoline-5-carbonitrile] | 0.05 to 0.1 | 
CC(Nc1ncnc2[nH]cnc12)c1cc(Cl)c2cccnc2c1N1CCN(Cc2ccncc2)CC1 (stereo not drawn) [Example 74, N-(1-{5-Chloro-8-[4-(pyridin-4-ylmethyl)piperazin-1-yl]quinolin-7-yl}ethyl)-9H-purin-6-amine tris(trifluoroacetate)] | < 0.05 | 
CC(Nc1nc(N)nc2[nH]cnc12)c1cc(F)c2ccnnc2c1-c1cccc(F)c1 (single isomer, unassigned) [Example 22, N(6)-{1-[5-Fluoro-8-(3-fluorophenyl)cinnolin-7-yl]ethyl}-9H-purine-2,6-diamine] | < 0.05 | 
CC(Nc1ncnc2[nH]cnc12)c1cc(F)c2ccnnc2c1-c1cccc(F)c1 (stereo not drawn) [Example 19, N-{1-[5-Fluoro-8-(3-fluorophenyl)cinnolin-7-yl]ethyl}-9H-purin-6-amine] | 0.1 to 0.25 | 
CC(Nc1ncnc2[nH]cnc12)c1cc(Cl)c2conc2c1-c1cccc(F)c1 (stereo not drawn) [Example 104, N-{1-[4-Chloro-7-(3-fluorophenyl)-2,1-benzisoxazol-6-yl]ethyl}-9H-purin-6-amine] | < 0.05 | 
CC(Nc1ncnc2[nH]cnc12)c1cc(F)c2ccnnc2c1-c1cc(F)cc(F)c1 (single isomer, unassigned) [Example 29, N-{1-[8-(3,5-difluorophenyl)-5-fluorocinnolin-7-yl]ethyl}-9H-purin-6-amine trifluoroacetate] | 0.1 to 0.25 | 
CC(Nc1ncnc2[nH]cnc12)c1cc(Cl)c2ccnnc2c1-c1cc(F)cc(F)c1 (single isomer, unassigned) [Example 24, N-{1-[5-Chloro-8-(3,5-difluorophenyl)cinnolin-7-yl]ethyl}-9H-purin-6-amine] | > 1 | 
CC(Nc1ncnc2[nH]cnc12)c1cc(Cl)c2cccnc2c1N1CCC(C#N)C1 (mixture of isomers) [Example 60, 1-{5-Chloro-7-[1-(9H-purin-6-ylamino)ethyl]quinolin-8-yl}pyrrolidine-3-carbonitrile bis(trifluoroacetate)] | 0.1 to 0.25 | 
COCCN1CCN(c2c(C(C)Nc3ncnc4[nH]cnc34)cc(Cl)c3cccnc23)CC1 (stereo not drawn) [Example 11, N-(1-{5-chloro-8-[4-(2-methoxyethyl)piperazin-1-yl]quinolin-7-yl]ethyl)-9H-purin-6-amine tris-trifluoroacetate] | < 0.05 | 
Cc1cc(C(C)Nc2ncnc3[nH]cnc23)c(-c2cc(F)cc(F)c2)c2nnccc12 (single isomer, unassigned) [Example 39, N-{1-[8-(3,5-difluorophenyl)-5-methylcinnolin-7-yl]ethyl}-9H-purin-6-amine] | > 1 | 
CC(Nc1ncnc2[nH]cnc12)c1cc(F)c2ccnnc2c1-c1cccc(F)c1 (single isomer, unassigned) [Example 20, N-{1-[5-Fluoro-8-(3-fluorophenyl)cinnolin-7-yl]ethyl}-9H-purin-6-amine] | < 0.05 | 
CC(Nc1ncnc2[nH]cnc12)c1cc(Cl)c2cccnc2c1N1CCC(c2ccccc2)CC1 (stereo not drawn) [Example 72, N-{1-[5-Chloro-8-(4-phenylpiperidin-1-yl)quinolin-7-yl]ethyl}-9H-purin-6-amine bis(trifluoroacetate)] | > 1 | 
CC(Nc1ncnc2[nH]cnc12)c1cc(Cl)c2cccnc2c1N1CCC(C#N)CC1 (stereo not drawn) [Example 59, 1-{5-Chloro-7-[1-(9H-purin-6-ylamino)ethyl]quinolin-8-yl]piperidine-4-carbonitrile bis(trifluoroacetate)] | 0.1 to 0.25 | 

Now from value to compound, other results behind:

IC50 [µM] | Compound | other results
< 0.05 | Cc1cc(C(=O)N2CCN(c3c(C(C)Nc4ncnc5[nH]cnc45)cc(Cl)c4cccnc34)CC2)no1 (stereo not drawn) [Example 99, N-[1-(5-Chloro-8-{4-[(5-methylisoxazol-3-yl)carbonyl]piperazin-1-yl}quinolin-7-yl)ethyl]-9H-purin-6-amine bis(trifluoroacetate)] | 
< 0.05 | CC(Nc1ncnc2[nH]cnc12)c1cc(Cl)c2cccnc2c1N1CCN(C(=O)c2cccnc2)CC1 (stereo not drawn) [Example 96, N-(1-{5-Chloro-8-[4-(pyridin-3-ylcarbonyl)piperazin-1-yl]quinolin-7-yl}ethyl)-9H-purin-6-amine tris(trifluoroacetate)] | 
< 0.05 | CC(Nc1ncnc2[nH]cnc12)c1cc(Cl)c2cn[nH]c2c1-c1cccc(F)c1 (stereo not drawn) [Example 105, N-{1-[4-Chloro-7-(3-fluorophenyl)-1H-indazol-6-yl]ethyl}-9H-purin-6-amine] | 
< 0.05 | CCC(Nc1ncnc2[nH]cnc12)c1cc(Cl)c2ccnnc2c1-c1cccc(F)c1 (single isomer, unassigned) [Example 33, N-{1-[5-chloro-8-(3-fluorophenyl)cinnolin-7-yl]propyl}-9H-purin-6-amine] | 
< 0.05 | CC(Nc1ncnc2[nH]cnc12)c1cc(Cl)c2cccnc2c1N1CCN(C(=O)N(C)C)CC1 (stereo not drawn) [Example 88, 4-{5-Chloro-7-[1-(9H-purin-6-ylamino)ethyl]quinolin-8-yl}-N,N-dimethylpiperazine-1-carboxamide bis(trifluoroacetate)] | 
< 0.05 | CC(Nc1ncnc2[nH]cnc12)c1cc(Cl)c2cn[nH]c2c1-c1cc(F)cc(F)c1 (stereo not drawn) [Example 106, N-{1-[4-Chloro-7-(3,5-difluorophenyl)-1H-indazol-6-yl]ethyl)-9H-purin-6-amine] | 
< 0.05 | CC(Nc1ncnc2[nH]cnc12)c1cc(Cl)c2ccncc2c1-c1cccc(F)c1 (stereo not drawn) [Example 56, N-{1-[5-Chloro-8-(3-fluorophenyl)isoquinolin-7-yl]ethyl}-9H-purin-6-amine] | 
< 0.05 | CC(Nc1ncnc2[nH]cnc12)c1cc(Cl)c2cccnc2c1N1CCN(C2CCC2)CC1 (stereo not drawn) [Example 69, N-{1-[5-Chloro-8-(4-cyclobutylpiperazin-1-yl)quinolin-7-yl]ethyl}-9H-purin-6-amine tris(trifluoroacetate)] | 
< 0.05 | CC(Nc1ncnc2[nH]cnc12)c1cc(F)c2cccnc2c1N1CCN(C(=O)c2cnn(C)c2)CC1 (stereo not drawn) [Example 103, N-[1-(5-Fluoro-8-{4-[(1-methyl-1H-pyrazol-4-yl)carbonyl]piperazin-1-yl}quinolin-7-yl)ethyl]-9H-purin-6-amine bis(trifluoroacetate)] | 
< 0.05 | CC(Nc1ncnc2[nH]cnc12)c1cc(Cl)c2cccnc2c1N1CCN(C2CC2)CC1 (stereo not drawn) [Example 66, N-{1-[5-Chloro-8-(4-cyclopropylpiperazin-1-yl)quinolin-7-yl]ethyl}-9H-purin-6-amine tris(trifluoroacetate)] | 
